From patent publication US20030125322A1, “Crystalline form I of 2-methyl-4-(4-methyl-1-piperazinyl) 10H thieno [2,3-b][1,5]benzodiazepine” (SUN PARMACEUTICAL INDUSTRIES LIMITED, priority 2001, published 2003)
Entries after “also recorded” stand apart in the source; their conditions may differ.

Legend:
[1] = Storage stability of the crystalline form (colour, infrared spectrum, x-ray diffractogram); type: physicochemical; details: for change in colour, Infrared spectrum and X-ray diffractogram on storage: accelerated conditions
From the text: The crystalline Form I of 2-methyl-4-(4-methyl-1-piperazinyl)-10H-thieno[2,3-b][1,5]benzodiazepine of the present invention has a typical x-ray powder diffraction pattern as represented by d (interplanar spacing) values 9.9446, 8.5272, 8.1949, 6.8637, 6.3510, 5.4653, 4.8278, 4.7121, 4.5295, 4.2239, 4.0788, 3.8230, 3.7525, 3.6909, 3.4995, 3.3393, 3.1051, 2.9451, 2.8182, 2.7589, 2.5925, 2.3369, 2.0251, 1.9183; infrared absorbance bands at approximately 1456, 1365, 905, 757, 662 & 604 cm^−1 and a stable colour.

[2] = cited from earlier work; for colour stability on standing / storage: prior-art material as reported ('382 process Form I; '541 Form II)

SMILES | change in colour, Infrared spectrum and X-ray diffractogram on storage ([1]; 40° C. and 75% relative humidity for one month) | change in colour, Infrared spectrum and X-ray diffractogram on storage ([1]; 40° C. and 75% relative humidity for one month, listed as Example 2) | change in colour, Infrared spectrum and X-ray diffractogram on storage ([1]; 75-80° C. for 25 days) | change in colour, Infrared spectrum and X-ray diffractogram on storage ([1]; 75-80° C. for 25 days, listed as Example 2) | change in colour, infrared spectrum and x-ray diffractogram on storage ([1]; ambient conditions of storage, about 15° C. to 35° C. and about 40% to 90% RH) | change in colour, Infrared spectrum (KBr) and X-ray diffractogram on storage ([1]; ambient conditions of storage, room temperature for one month) | stability of crystal form ([2]; Form I obtained by the '382 process, as reported) | colour stability on standing / storage [2]
Cc1cc2c(s1)Nc1ccccc1N=C2N1CCN(C)CC1 [Form I, 2-methyl-4-(4-methyl-1-piperazinyl)-10H-thieno[2,3-b][1,5]benzodiazepine] | no changes in colour, infra-red spectrum and x-ray diffractogram | No change in colour, Infrared spectrum (KBr) and X-ray diffractogram | no changes in colour, infra-red spectrum and x-ray diffractogram | No change in colour, Infrared spectrum (KBr) and X-ray diffractogram | no change in colour, infrared spectrum and x-ray diffractogram | No change in colour, Infrared spectrum (KBr) and X-ray diffractogram | metastable | colour changes upon storage and exposure to air; also recorded: change its colour on standing
Cc1cc2c(s1)Nc1ccccc1N=C2N1CCN(C)CC1 [Form II, olanzapine, reference compound] |  |  |  |  |  |  |  | satisfactory colour stability
